Literature values in patent US20040191328A1, “Combination of gallium compounds with nonchemotherapeutic anticancer agents in the treatment of neoplasia” (priority 2002, published 2004).

Legend:
[1] = tested on: cells in vitro
[2] = increased exposure secondary to decreased clearance

SMILES | concentration at which growth inhibition occurs ([1]; chronic exposure, low concentrations) [µg/mL] | concentration inducing both cellular cytotoxicity and inhibition of growth ([1]; exposure of duration longer than 24 hours) [µg/mL] | dose reduction of paclitaxel and doxorubicin needed to achieve equivalent myelosuppression [2] [fold]
O=[N+]([O-])[O-].O=[N+]([O-])[O-].O=[N+]([O-])[O-].[Ga+3] [Gallium nitrate, gallium nitrate] | 10 | > 50 | 
C/C=C/C[C@@H](C)C(=O)[C@H]1C(=O)N[C@@H](C(C)C)C(=O)N(C)CC(=O)N(C)[C@@H](CC(C)C)C(=O)N[C@@H](C(C)C)C(=O)N(C)[C@@H](CC(C)C)C(=O)N[C@@H](C)C(=O)N[C@H](C)C(=O)N(C)[C@@H](CC(C)C)C(=O)N(C)[C@@H](CC(C)C)C(=O)N(C)[C@@H](C(C)C)C(=O)N1C [PSC 833] |  |  | 2
